Results published in publication PMC11965454, “Simultaneous determination of lesinurad and co-administered drugs used in management of gout comorbidities to uncover potential pharmacokinetic interaction in rat plasma” (Scientific Reports, 2025).
Read-outs that look alike come from different tables or passages of the source.

What was measured:
[1] = system: plasma albumin; settings: cited from earlier work
[2] = Stock solution stability (methanol), HPLC-DAD; format: physicochemical; settings: stock solution in methanol, n = 3; for recovery at 6 h, 1000 ng/ml / recovery at 6 h, 10000 ng/ml / recovery at 6 h, 25000 ng/ml: 6 h at room temperature, read-out: Stock solution stability (room temp.) Recovery%; for recovery at 30 days, 1000 ng/ml / recovery at 30 days, 10000 ng/ml / recovery at 30 days, 25000 ng/ml: 30 days at 4 °C; for recovery at 6 h, 10000 ng/ml / recovery at 30 days, 10000 ng/ml: 10,000 ng/ml; for recovery at 6 h, 25000 ng/ml / recovery at 30 days, 25000 ng/ml: 25,000 ng/ml
[3] = Stability of the studied drugs in rat plasma (freeze-thaw, bench-top, long-term), HPLC-DAD; format: in vitro ADME; settings: n = 3; for recovery at 6 h, 1000 ng/ml / recovery at 35 days, 1000 ng/ml / recovery at 1000 ng/ml: rat plasma; for recovery at 6 h, 1000 ng/ml / recovery at 6 h, 10000 ng/ml / recovery at 6 h, 25000 ng/ml: 6 h at room temperature; for recovery at 35 days, 1000 ng/ml / recovery at 35 days, 10000 ng/ml / recovery at 35 days, 25000 ng/ml: 35 days at -20 °C; for recovery at 1000 ng/ml / recovery at 10000 ng/ml / recovery at 25000 ng/ml: three cycles -20 °C / room temperature; for recovery at 6 h, 10000 ng/ml / recovery at 35 days, 10000 ng/ml / recovery at 10000 ng/ml: rat plasma, 10,000 ng/ml; for recovery at 6 h, 25000 ng/ml / recovery at 35 days, 25000 ng/ml / recovery at 25000 ng/ml: rat plasma, 25,000 ng/ml
Experimental: Stability studies were conducted by preparing low, medium and high plasma QC samples in triplicates under different conditions and comparing them with freshly prepared quality control samples. Namely, three freeze-thaw cycles (freeze at -20 °C then thaw at room temperature for three cycles), bench-top stability testing for 6 h at room temperature and long-term stability testing for 35 days at -20 °C.

[4] = Drug interaction pharmacokinetic study of LES and ETC, single oral dose, plasma levels by HPLC-DAD; format: in vivo, Sprague-Dawley rats; settings: for k el: read-out: Ke (converted); for AUC: n=5; for Change of Ke: after repeated administration of the other drug vs alone; for Change of area under the curve (AUC): single oral dose following the repeated administration of the other drug vs alone
Text: The HPLC-DAD system consisted of Agilent 1200 series (auto-injector, quaternary pump, vacuum degasser and diode array and multiple wavelength detector G1315 C/D and G1365 C/D) connected to a computer loaded with Agilent ChemStation Software (Agilent Technologies, Santa Clara, CA, USA). […] The chromatographic separation was achieved using a Zorbax Eclipse Plus C18 (4.6 × 250 mm, 5 μm particle size) column attached to Zorbax Eclipse Plus C18 (4.6 × 12.5 mm, 5 μm particle size) analytical guard column (Agilent Technologies, Santa Clara, CA, USA). The gradient elution was composed of the mobile phase: acetonitrile and 0.05 M potassium dihydrogen orthophosphate eluted in the ratios and at flow rates listed in Table 1 using an injection volume of 50 µL. All determinations were performed at 25 °C. All pH measurements were made using a Hanna pH meter, (RI, USA). Calibration was done using standard buffers of pH 4 and 7 at room temperature.
The internal standard DIC (0.05 mL) was added to each 0.2 mL rat plasma sample. To the rat plasma sample, 0.6 mL of acetonitrile were added. In order to equalize the final volumes in both; the standard calibration curve samples and the rat plasma samples, up to 1 mL of methanol were added. The samples were covered, vortexed for 1 min at high speed followed by centrifugation for 10 min at ~ 2500 × g. The organic layer was transferred to HPLC autosampler vials. For each sample, 50 µL were directly injected into the HPLC system.
The animal study has been designed and the results have been reported in accordance with the ARRIVE Guidelines. All animal experiments were conducted according to an experimental protocol approved by the Institutional Animal Care and Use Committee at Alexandria University (Serial Number 135) and in compliance with the Guide for the Care and Use of Laboratory Animals of the Institute for Laboratory Animal Research of the National Academy of Sciences, U.S.A. Animals were obtained from the animal facility at the Research and Innovation Hub at Alamein International University. Single dose pharmacokinetics of LES and ETC, as well as the effect of repeated administration of one on the PK parameters of the other reflecting the PK interactions if any, were assessed as described in our previous work[33]. Since the parameters of the oral pharmacokinetic investigation in experimental animals, in terms of feeding and fasting durations, oral dosing timing and volumes, blood sampling, as well as time intervals of redosing, can be controlled with relative ease, rat group sizes of 5–6 were sufficient for the detection of statistical difference in previous studies carried out in our laboratory[34],[35], and in other groups[36],[37], including studies that looked into the pharmacokinetics of ETC and LES[27],[38]. As will be seen below, the experiment was designed for paired comparison with before and ater measurements from the same rats, further increasing the power for statistical analysis. As such, ten healthy adult male Sprague-Dawley rats (8 weeks of age, ~ 250 g weight) were randomized into two groups of five rats each: LES PK group and ETC PK group. No criteria were set for animal allocation per group. Rats were housed in polycarbonate cages on wood shavings bedding at the animal facility at Alamein International University under controlled temperature (23 °C) and humidity (45%) and a 12-hour dark/light cycle. Rats were given ad libitum access to drinking water and commercial rodent chow (21% protein, Al-Fajr Animal Feed, Beheira, Egypt) prior to and during the experiment. The PK parameters of single doses of each drug were determined at baseline in the respective group and once more after seven days of administration of the other drug, without a washout period. To elaborate, on Day 0, following twelve hours of fasting, rats in each group received a single dose of the respective drug by oral gavage (15 mg/Kg for LES[27], and 5 mg/Kg for ETC[39]). […]

[5] = male, Sprague-Dawley, plasma, LES 15 mg/Kg single oral dose alone (Day 0), rat, Mean ± SEM
[6] = male, Sprague-Dawley, ETC 5 mg/Kg single oral dose alone (Day 0), rat plasma, Mean ± SEM

Row | recovery at 6 h, 1000 ng/ml [2] | recovery at 30 days, 1000 ng/ml [2] | recovery at 6 h, 10000 ng/ml [2] | recovery at 30 days, 10000 ng/ml [2] | recovery at 6 h, 25000 ng/ml [2] | recovery at 30 days, 25000 ng/ml [2] | recovery at 6 h, 1000 ng/ml [3] | recovery at 35 days, 1000 ng/ml [3] | recovery at 1000 ng/ml [3] | recovery at 6 h, 10000 ng/ml [3] | recovery at 35 days, 10000 ng/ml [3] | recovery at 10000 ng/ml [3] | recovery at 6 h, 25000 ng/ml [3] | recovery at 35 days, 25000 ng/ml [3] | recovery at 25000 ng/ml [3] | Change of Ke ([4]; rat) | Change of area under the curve (AUC) ([4]; rat) | SMILES | further results
1 | 97.3% | 98.7% | 96.5% | 97.2% | 94.8% | 99.2% | 92.5% | 93.8% | 91.6% | 92.5% | 94.7% | 93.8% | 96.1% | 94.6% | 92.7% | neither t1/2 nor Ke changed | increased | O=C(O)CSc1nnc(Br)n1-c1ccc(C2CC2)c2ccccc12 [LES, lesinurad] | Binding to plasma albumin ([1]; ref PMID: 31191704): extensively bound to plasma albumin; Tmax ([4]; LES 15 mg/Kg single oral dose alone (Day 0), rat): 2 h; Ka ([4]; LES 15 mg/Kg single oral dose alone (Day 0), rat, Mean ± SEM): 3.32 ± 0.78 h⁻¹; half-life [4, 5]: 3.96 ± 1.07 h; k el [4, 5]: 7.78e-05 s⁻¹; AUC ([4]; male, Sprague-Dawley, LES 15 mg/Kg single oral dose alone (Day 0), rat plasma, Mean ± SEM): 9600 ± 1890 ng·h/mL; Change of Cmax ([4]; rat, LES after repeated ETC administration vs alone): sharp increase in Cmax
2 | 101% | 102% | 102% | 97.9% | 102% | 98.9% | 105% | 104% | 91.9% | 96.8% | 97.6% | 94.3% | 94.2% | 92.6% | 103% | – | – | COC(=O)[C@@H]1CC2=CC(=O)CC[C@]2(C)[C@@]23O[C@@H]2C[C@@]2(C)[C@@H](CC[C@@]24CCC(=O)O4)[C@H]13 [EPL, eplerenone] | –
3 | 99.5% | 98.3% | 99.5% | 96.4% | 98.8% | 99.2% | 97.5% | 95.8% | 98% | 92.8% | 94.1% | 95.3% | 92.7% | 90.4% | 96.5% | neither t1/2 nor Ke changed | increased | Cc1ccc(-c2ncc(Cl)cc2-c2ccc(S(C)(=O)=O)cc2)cn1 [ETC, etoricoxib] | Binding to plasma albumin ([1]; ref PMID: 18840026): extensively bound to plasma albumin; Ka ([4]; ETC 5 mg/Kg single oral dose alone (Day 0), rat, method of residuals, Mean ± SEM): 1.82 ± 0.55 h⁻¹; k el ([4]; male, Sprague-Dawley, plasma, ETC 5 mg/Kg single oral dose alone (Day 0), rat, Mean ± SEM): 4.17e-05 s⁻¹; half-life ([4]; male, Sprague-Dawley, plasma, ETC 5 mg/Kg single oral dose alone (Day 0), rat, one phase decay, Mean ± SEM): 4.88 ± 0.56 h; Tmax ([4]; male, Sprague-Dawley, plasma, ETC 5 mg/Kg single oral dose alone (Day 0), rat, read-out: Tmax): 1 h; Cmax [4, 6]: 1170 ± 148 ng/mL; AUC [4, 6]: 11200 ng·h/mL; Change of absorption rate constant (Ka) ([4]; rat, ETC in the continued presence of LES vs alone): increased Ka
